Active and inactive are the calls of the source. No rule for the calls is given here.
molecular target: Ubiquitin-conjugating enzyme E2 N (Homo sapiens) (UniProt P61088); assay: NMR detection of UBE2N ligand binding – biophysical, purified protein (AID 1552); settings: NMR binding to purified UBE2N
Sequence (P61088 whole entry, looked up): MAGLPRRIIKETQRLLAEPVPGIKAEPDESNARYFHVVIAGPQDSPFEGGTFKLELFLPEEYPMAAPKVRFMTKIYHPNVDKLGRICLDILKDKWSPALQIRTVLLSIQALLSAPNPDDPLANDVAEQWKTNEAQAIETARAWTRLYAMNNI

SMILES	Kd
COc1ccc(-c2nc(N)n(C(C)=O)n2)cc1	> 4 mM (inactive)
CC(=O)NN1C(=O)c2cccc3cccc(c23)C1=O	> 4 mM (inactive)
CS(=O)(=O)c1nncn1-c1ccccc1	> 4 mM (inactive)
O=c1c(O)c(-c2ccccc2)oc2ccccc12	> 4 mM (inactive)
O=C(c1cc2ccccc2o1)N1CCCCCC1	> 4 mM (inactive)
Cn1c(CNc2ccccc2)cc(=O)n(C)c1=O	> 4 mM (inactive)
CC(C)=NNC(=O)C(=O)NC(C)(C)C	> 4 mM (inactive)
O=C(NC1CSCC1O)c1ccccc1 (configuration not stated)	> 4 mM (inactive)
Cc1ccccc1NC(=S)NCCO	> 4 mM (inactive)
Cc1ccc(Nc2nnns2)cc1C	> 4 mM (inactive)
Cc1cc(N)n(-c2ccccc2)n1	> 4 mM (inactive)
O=C1C2C3CCC(O3)C2C(=O)N1c1cccc(F)c1 (configuration not stated)	> 4 mM (inactive)
O=S(=O)(CCN1CCCC1)c1ccccc1	> 4 mM (inactive)
Cc1cn(C(=O)CN2C(=O)c3ccccc3C2=O)c(C)n1	> 4 mM (inactive)
CC(=O)O[C@@H]1CC2C(C)(C)[C@H](O)CC[C@]2(C)C2CC[C@@]3(C)[C@H](c4ccoc4)OC(=O)C4OC43[C@@]21C (some centres not stated)	> 4 mM (inactive)
Nc1ccc(N2CCOCC2)cc1	> 4 mM (inactive)
NC(=O)c1ccccc1NC(=O)C1CC1	> 4 mM (inactive)
COC(=O)[C@]1(C)CC[C@]2(C)CC[C@]3(C)C4=CC=C5C(=CC(=O)C(O)=C5C)[C@]4(C)CC[C@@]3(C)[C@@H]2C1	> 4 mM (inactive)
COC1(C)CCC2OC2(C)CCC2C1CC2(C)C (configuration not stated)	> 4 mM (inactive)
CC(C)=CC(=O)Nc1ccc(S(N)(=O)=O)cc1	> 4 mM (inactive)
O=C1NC(=S)S/C1=C/c1ccncc1	> 4 mM (inactive)

SMILES	Kd
O=C(O)CCC(=O)NCc1cccnc1	> 4 mM (inactive)
S=C(NCC1CCCO1)NC1CC1 (configuration not stated)	> 4 mM (inactive)
Cn1cnnc1SCCCNC(=O)Nc1ncccn1	> 4 mM (inactive)
COc1nc(C#N)c(N2CCOCC2)o1	> 4 mM (inactive)
COc1cc(S(=O)(=O)N(C)C)ccc1F	> 4 mM (inactive)
C[C@]12C=CC(=O)C=C1CCC1C2CC[C@]2(C)C(=O)CCC12 (some centres not stated)	> 4 mM (inactive)
CN1C2CC[C@@H]1CC(OC(=O)[C@H](CO)c1ccccc1)C2 (some centres not stated)	> 4 mM (inactive)
COc1ccc2c(c1)OCC(Cc1ccc(OC)c(OC)c1)C2=O (configuration not stated)	> 4 mM (inactive)
O=C(c1cnsn1)N1CCN(c2ccccc2)CC1	> 4 mM (inactive)
CC(C)c1nnc(N)s1	> 4 mM (inactive)
O=C(O)c1cccc2c1OCC2	> 4 mM (inactive)
NC(=O)Cn1nc(-c2ccc(F)cc2)ccc1=O	> 4 mM (inactive)
c1ccc(-c2nc3ccccc3nc2-c2ccccn2)nc1	> 4 mM (inactive)
COC(=O)C[C@H]1C2(C)CC34OC5(C)O[C@@]6([C@H](OC(C)=O)C(OC(C)=O)[C@]7(C)C(/C(=C(/O)C(C)C)C(=O)O[C@H]7c7ccoc7)[C@@]6(O5)[C@H](OC(C)=O)[C@@]3(O)C2OC(=O)C(C)C)[C@]14C (some centres not stated)	> 4 mM (inactive)
C[C@@H]1CC[C@@]2(OC1)OC1CC3C4CC=C5C[C@@H](O)CC[C@]5(C)C4CC[C@]3(C)C1[C@@H]2C (some centres not stated)	> 4 mM (inactive)
C=C1C2CC[C@@]3(C)[C@H](c4ccoc4)OC(=O)C[C@]13O[C@H]1CC(=O)C(C)(C)[C@H](C(O)C(=O)OC)[C@@]21C (some centres not stated)	> 4 mM (inactive)
Cn1c(O)c(/C=C2\C=CC=N2)c(=O)[nH]c1=O	> 4 mM (inactive)
O=c1c2c(nc3nc(COc4ccccc4)[nH]n13)CCC2	> 4 mM (inactive)
CNC(C)[C@H](O)c1ccccc1 (some centres not stated)	> 4 mM (inactive)
c1ccc2[nH]c(-c3cscn3)nc2c1	> 4 mM (inactive)
O=C(NCCO)NC(=S)c1ccccc1	> 4 mM (inactive)

SMILES	Kd
CC(=O)c1ccc(N2C(=O)C(C(C)C)NC2=S)cc1 (configuration not stated)	> 4 mM (inactive)
O=C(c1cccs1)N1CCCc2ccccc21	> 4 mM (inactive)
OC[C@H]1O[C@@H](Oc2ccc(O)cc2)[C@H](O)[C@@H](O)[C@@H]1O	> 4 mM (inactive)
C#CCCCCCCCCCCCC(O)CC(O)COC(C)=O (configuration not stated)	> 4 mM (inactive)
COc1ccc2nc(N)sc2n1	> 4 mM (inactive)
Cc1cccc(C)c1NC(=O)CN1CCOCC1	> 4 mM (inactive)
CN(C)C(=O)N1CCN(C(=O)c2ccco2)CC1	> 4 mM (inactive)
CC1=CC(=O)CC(C)(C)C1(O)/C=C/C(C)=C\C(=O)O (configuration not stated)	> 4 mM (inactive)
Cc1n[nH]c(C)c1NC(=O)c1cccc(F)c1	> 4 mM (inactive)
CC(C)=CCc1c(O)cc2occ(-c3ccc4c(c3)OCO4)c(=O)c2c1O	> 4 mM (inactive)
CC(=O)NC12CC3CC(C)(C1)CC(NC(C)=O)(C3)C2	> 4 mM (inactive)
COc1ccc(NC(=O)/C=N/O)cc1	> 4 mM (inactive)
COc1cc2ccc(=O)oc2c2ccoc12	> 4 mM (inactive)
O=C(O)c1cccc(N2C(=O)C3CC=CCC3C2=O)c1 (configuration not stated)	> 4 mM (inactive)
COc1cc(OC)c(-c2c(OC)cc(OC)cc2OC)c(OC)c1	> 4 mM (inactive)
O=C(NCc1cccc(Cl)c1)c1cccnc1	> 4 mM (inactive)
c1ccc2c(c1)nnn2C1CCNCC1	> 4 mM (inactive)
O=C1O[C@H](C(O)CO)C(O)=C1O (some centres not stated)	> 4 mM (inactive)
COCC(=O)Nc1cccc(Br)c1	> 4 mM (inactive)
Cn1c(=O)n(C)c2cc(C(N)=O)ccc21	> 4 mM (inactive)
OC(CCl)c1ccc(-n2cncn2)cc1 (configuration not stated)	> 4 mM (inactive)

SMILES	Kd
Cc1cc(C(=O)O)n[nH]1	> 4 mM (inactive)
C[C@@H]1O[C@@H](O[C@H]2C[C@@H](O)[C@]3(CO)C4C(CC[C@]3(O)C2)[C@@]2(O)CC[C@H](C3=CC(=O)OC3)[C@@]2(C)C[C@H]4O)[C@H](O)[C@H](O)[C@H]1O (some centres not stated)	> 4 mM (inactive)
O=C(NS(=O)(=O)c1ccccc1)c1ccccc1F	> 4 mM (inactive)
Cc1cc(C(=O)NCc2ccco2)cs1	> 4 mM (inactive)
O=C(c1ccco1)N1CCNCC1	> 4 mM (inactive)
COC(=O)N1CCN(c2ccc(C(C)=O)cc2)CC1	> 4 mM (inactive)
NC(=O)c1cc(Cl)c(C(N)=O)cc1Cl	> 4 mM (inactive)
Nc1cccc(-n2cccc2)c1	> 4 mM (inactive)
Cc1n[nH]c(=O)c2ncn(C)c12	> 4 mM (inactive)
O=C(NCC1CCNCC1)c1ccccn1	> 4 mM (inactive)
COc1ccc2c(c1)CCCN2C(N)=O	> 4 mM (inactive)
COc1ccc2c(c1OC)OC[C@@H](c1ccc(OC)c(OC)c1OC)C2	> 4 mM (inactive)
COc1ccc(-c2cc(=O)c3cc(OC)ccc3o2)cc1	> 4 mM (inactive)
CC(=O)Nc1cccc(N2C(=O)CCC2=O)c1	> 4 mM (inactive)
Cc1cc(N(CN2CCCC2=O)C(=O)c2ccccc2)no1	> 4 mM (inactive)
COC(=O)c1ccc(/C=C2/NC(=S)NC2=O)cc1	> 4 mM (inactive)
O=C1C=C(Nc2ccccc2O)c2ccccc2C1=O	> 4 mM (inactive)
Cc1scc(C(=O)Nc2ccon2)c1-c1ccccc1	> 4 mM (inactive)
O=C1CC(=O)N(c2ccccc2)c2ccccc21	> 4 mM (inactive)

Reference: PubChem BioAssay AID1552 (Sanford-Burnham Center for Chemical Genomics, 2009)
